The values that follow are results of earlier work, collected in US20200188405A1, “COMPOSITION FOR TREATING OCULAR DISORDERS SUCH AS MACULAR DEGENERATION, RETINOPATHY AND GLAUCOMA” (RHEOSTASIS, LLC, priority 2017, published 2020).

Counter-ions that a name gives are not always drawn.

The test system of this data set is β (beta) blocker. The note with it: ocular applications.

As to `CC(C)(C)NC[C@H](O)COc1nsnc1N1CCOCC1` [Timolol Maleate], the “potency as β blocker relative to propranolol” value is reported as 5-10 times.
